The values below come from US20090082203A1, “INSECTICIDAL BIS(SUBSTITUTED PHENYL)-1-{[4-(SATURATED HETEROCYCLYL-SUBSTITUTED)PHENYLMETHYL]- (4-PIPERIDYL)}METHANE DERIVATIVES” (priority 2004, published 2009).

The test system of the series is tobacco budworm (Heliothis virescens [Fabricius]). The series can be described thus: surface-treated diet test against tobacco budworm. The format is in vivo. As to conditions: for Percent Growth Inhibition: inhibition of insect weight relative to untreated controls.
[1] abbreviates: 0.25 millimolar on the surface of the diet, second instar larvae, five-day exposure, compared to the total number of insects infested.
[2] abbreviates: 0.25 millimolar on the surface of the diet, second instar larvae, five-day exposure.

Regarding `[O-][N+]1(Cc2ccc(C3O[C@H]4CCC[C@H]4O3)cc2)CCC(C(O)(c2ccc(OC(F)(F)F)cc2)c2ccc(OC(F)(F)F)cc2)CC1` (stereo partly shown) [Compound 123], under setting [1], the “Percent Mortality” value turned out to be 100%. In addition, the “Percent Growth Inhibition” value under setting [2] is reported as 100%.

For the compound `CC1(C)OC(c2ccc(C[N+]3([O-])CCC(C(O)(c4ccc(OC(F)(F)F)cc4)c4ccc(OC(F)(F)F)cc4)CC3)cc2)OC1(C)C` (stereo not shown) [Compound 126], under setting [1], the “Percent Mortality” value was 100%. Moreover, the “Percent Growth Inhibition” value under setting [2] was determined as 100%.

Regarding `OC(c1ccc(OC(F)(F)F)cc1)(c1ccc(OC(F)(F)F)cc1)C1CCN(Cc2ccc(C3OC4CCCCC4O3)cc2)CC1` (stereo not shown) [Compound 127], the “Percent Mortality” value under setting [1] is on record as 100%. For the same compound, the “Percent Growth Inhibition” value under setting [2] came to 100%.

As for `OC(c1ccc(Cl)c(Cl)c1)(c1ccc(Cl)c(Cl)c1)C1CCN(Cc2ccc(C3OCCO3)cc2)CC1` [Compound 145], the “Percent Mortality” value under setting [1] was found to be 100%. Besides, the “Percent Growth Inhibition” value under setting [2] is reported as 100%.

Consider `Cc1cc(CN2CCC(C(O)(c3ccc(OC(F)(F)F)cc3)c3ccc(OC(F)(F)F)cc3)CC2)ccc1C1OCCO1` [Compound 169], for which, under setting [2], the “Percent Growth Inhibition” value is 100%. Further, the “Percent Mortality” value (in vivo) is 100%.

As to `Cc1cc(C[N+]2([O-])CCC(C(O)(c3ccc(OC(F)(F)F)cc3)c3ccc(OC(F)(F)F)cc3)CC2)ccc1C1OCCO1` (stereo not shown) [Compound 170], the “Percent Growth Inhibition” value under setting [2] stood at 100%. Moreover, for the setting “in vivo”, the “Percent Mortality” value is reported as 100%.

Consider `OC(c1ccc(OC(F)(F)F)cc1)(c1ccc(OC(F)(F)F)cc1)C1CCN(Cc2ccc(C3OCCO3)c(Cl)c2)CC1` [Compound 171], for which the “Percent Mortality” value under setting [1] came out at 100%. The “Percent Growth Inhibition” value under setting [2] was 100%.

In the case of `OC(c1ccc(OC(F)(F)F)cc1)(c1ccc(OC(F)(F)F)cc1)C1CCN(Cc2ccc(C3OCCO3)c(C(F)(F)F)c2)CC1` [Compound 172], the “Percent Mortality” value under setting [1] is 100%. Further, under setting [2], the “Percent Growth Inhibition” value is 100%.

For the compound `OC(c1ccc(OC(F)(F)F)cc1)(c1ccc(OC(F)(F)F)cc1)C1CCN(Cc2ccc(C3OCCO3)c(F)c2)CC1` [Compound 173], the “Percent Mortality” value under setting [1] is recorded as 100%. Moreover, the “Percent Growth Inhibition” value under setting [2] is recorded as 100%.

On to `[O-][N+]1(Cc2ccc(C3OCCO3)c(F)c2)CCC(C(O)(c2ccc(OC(F)(F)F)cc2)c2ccc(OC(F)(F)F)cc2)CC1` (stereo not shown) [Compound 175], for which, under setting [1], the “Percent Mortality” value was 100%. The “Percent Growth Inhibition” value under setting [2] worked out at 100%.

Turning to `CC1COC(c2ccc(CN3CCC(C(O)(c4ccc(Cl)c(Cl)c4)c4ccc(Cl)c(Cl)c4)CC3)cc2)O1` (stereo not shown) [Compound 176], the “Percent Mortality” value under setting [1] was found to be 100%. Further, under setting [2], the “Percent Growth Inhibition” value came out at 100%.

In the case of `CC1COC(c2ccc(C[N+]3([O-])CCC(C(O)(c4ccc(Cl)c(Cl)c4)c4ccc(Cl)c(Cl)c4)CC3)cc2)O1` (stereo not shown) [Compound 177], the “Percent Mortality” value under setting [1] was 100%. Besides, the “Percent Growth Inhibition” value under setting [2] stood at 100%.

As for `CC1COC(c2ccc(CN3CCC(C(c4ccc(OC(F)(F)F)cc4)c4ccc(OC(F)(F)F)cc4)CC3)cc2)O1` (stereo not shown) [Compound 178], under setting [1], the “Percent Mortality” value is reported as 100%. The “Percent Growth Inhibition” value under setting [2] is given as 100%.

Regarding `CC1COC(c2ccc(CN3CCC(C(O)(c4ccc(OC(F)(F)F)cc4)c4ccc(OC(F)(F)F)cc4)CC3)cc2F)O1` (stereo not shown) [Compound 179], under setting [1], the “Percent Mortality” value was 100%. Further, the “Percent Growth Inhibition” value under setting [2] amounted to 100%.

Regarding `CC1COC(c2ccc(C[N+]3([O-])CCC(C(O)(c4ccc(OC(F)(F)F)cc4)c4ccc(OC(F)(F)F)cc4)CC3)cc2F)O1` (stereo not shown) [Compound 180], under setting [1], the “Percent Mortality” value came to 100%. Besides, the “Percent Growth Inhibition” value under setting [2] is listed as 100%.

Turning to `[O-][N+]1(Cc2ccc(C3OCCO3)c(Cl)c2)CCC(C(O)(c2ccc(OC(F)(F)F)cc2)c2ccc(OC(F)(F)F)cc2)CC1` (stereo not shown) [Compound 181], under setting [1], the “Percent Mortality” value was 100%. The “Percent Growth Inhibition” value under setting [2] was determined as 100%.

For the compound `[O-][N+]1(Cc2ccc(C3OCCO3)c(C(F)(F)F)c2)CCC(C(O)(c2ccc(OC(F)(F)F)cc2)c2ccc(OC(F)(F)F)cc2)CC1` (stereo not shown) [Compound 182], the “Percent Mortality” value under setting [1] is recorded as 100%. For the same compound, under setting [2], the “Percent Growth Inhibition” value was found to be 100%.

As for `OC(c1ccc(OC(F)(F)F)cc1)(c1ccc(OC(F)(F)F)cc1)C1CCN(Cc2ccc(CC3OCCO3)cc2)CC1` [Compound 183], under setting [1], the “Percent Mortality” value stood at 100%. Besides, the “Percent Growth Inhibition” value under setting [2] is reported as 100%.

For `[O-][N+]1(Cc2ccc(CC3OCCO3)cc2)CCC(C(O)(c2ccc(OC(F)(F)F)cc2)c2ccc(OC(F)(F)F)cc2)CC1` (stereo not shown) [Compound 184], under setting [1], the “Percent Mortality” value is given as 100%. Moreover, the “Percent Growth Inhibition” value under setting [2] is listed as 100%.

Turning to `[O-][N+]1(Cc2ccc(OCC3(c4ccccc4)OCCO3)cc2)CCC(C(O)(c2ccc(OC(F)(F)F)cc2)c2ccc(OC(F)(F)F)cc2)CC1` (stereo not shown) [Compound 185], the “Percent Mortality” value under setting [1] turned out to be 100%. Further, the “Percent Growth Inhibition” value under setting [2] came to 100%.

`OC(c1ccc(OC(F)(F)F)cc1)(c1ccc(OC(F)(F)F)cc1)C1CCN(Cc2ccc(OCC3(c4ccccc4)OCCO3)cc2)CC1` [Compound 186]: the “Percent Mortality” value under setting [1] came out at 100%. For the same compound, the “Percent Growth Inhibition” value under setting [2] was found to be 100%.

Take `OC(c1ccc(OC(F)(F)F)cc1)(c1ccc(OC(F)(F)F)cc1)C1CCN(Cc2ccc(OCC3OCCO3)cc2)CC1` [Compound 187]: the “Percent Mortality” value under setting [1] stood at 100%. Further, the “Percent Growth Inhibition” value under setting [2] stood at 100%.

For `[O-][N+]1(Cc2ccc(OCC3OCCO3)cc2)CCC(C(O)(c2ccc(OC(F)(F)F)cc2)c2ccc(OC(F)(F)F)cc2)CC1` (stereo not shown) [Compound 188], under setting [1], the “Percent Mortality” value came to 100%. In addition, the “Percent Growth Inhibition” value under setting [2] turned out to be 100%.

Take `CC1(C)OCC(COc2ccc(CN3CCC(C(O)(c4ccc(OC(F)(F)F)cc4)c4ccc(OC(F)(F)F)cc4)CC3)cc2)O1` (stereo not shown) [Compound 189, bis[4-(trifluoromethoxy)-phenyl][1-({4-[(2,2-dimethyl(1,3-dioxolan-4-yl))methoxy]phenyl}methyl)(4-piperidyl)]methan-1-ol]: the “Percent Mortality” value under setting [1] is 100%. Under setting [2], the “Percent Growth Inhibition” value came out at 100%.

On to `CC1(C)OCC(COc2ccc(C[N+]3([O-])CCC(C(O)(c4ccc(OC(F)(F)F)cc4)c4ccc(OC(F)(F)F)cc4)CC3)cc2)O1` (stereo not shown) [Compound 190, bis[4-(trifluoromethoxy)phenyl][1-({4-[(2,2-dimethyl-(1,3-dioxolan-4-yl))methoxy]phenyl}methyl)(4-piperidyl)]methan-1-ol, N-oxide], for which the “Percent Mortality” value under setting [1] stood at 100%. Further, the “Percent Growth Inhibition” value under setting [2] is recorded as 100%.

With `COc1ccc(C2(COc3ccc(C[N+]4([O-])CCC(C(O)(c5ccc(OC(F)(F)F)cc5)c5ccc(OC(F)(F)F)cc5)CC4)cc3)OCCO2)cc1` (stereo not shown) [Compound 191], the “Percent Mortality” value under setting [1] is 100%. Under setting [2], the “Percent Growth Inhibition” value was found to be 100%.

For the compound `COc1ccc(C2(COc3ccc(CN4CCC(C(O)(c5ccc(OC(F)(F)F)cc5)c5ccc(OC(F)(F)F)cc5)CC4)cc3)OCCO2)cc1` [Compound 192], the “Percent Mortality” value under setting [1] is on record as 100%. Besides, under setting [2], the “Percent Growth Inhibition” value was 100%.

With `CC1COC(COc2ccc(CN3CCC(C(O)(c4ccc(OC(F)(F)F)cc4)c4ccc(OC(F)(F)F)cc4)CC3)cc2)O1` (stereo not shown) [Compound 193], the “Percent Mortality” value under setting [1] is given as 100%. Besides, the “Percent Growth Inhibition” value under setting [2] is 100%.

As to `CC1COC(COc2ccc(C[N+]3([O-])CCC(C(O)(c4ccc(OC(F)(F)F)cc4)c4ccc(OC(F)(F)F)cc4)CC3)cc2)O1` (stereo not shown) [Compound 194], the “Percent Mortality” value under setting [1] is 100%. Under setting [2], the “Percent Growth Inhibition” value stood at 100%.
